Source: patent US20180368410A1, “MICROBIOCIDAL OXADIAZOLE DERIVATIVES” (SYNGENTA PARTICIPATIONS AG, priority 2015, published 2018)

Columns and labels:
[1] = system: Glomerella Lacenarium (Colletotrichum lacenarium); experiment: Glomerella lagenarium (Colletotrichum lagenarium) liquid culture / cucumber / preventative (anthracnose); type: cell-based; details: 20 ppm in the applied formulation, liquid culture in PDB, 24° C., inhibition of growth measured photometrically 3 to 4 days after application, vs untreated control, read-out: disease control
Description: Mycelia fragments or conidia suspensions of a fungus prepared either freshly from liquid cultures of the fungus or from cryogenic storage, are directly mixed into nutrient broth. DMSO solutions of the test compound (max. 10 mg/ml) are diluted with 0.025% Tween20 by a factor of 50 and 10 μl of this solution is pipetted into a microtiter plate (96-well format). The nutrient broth containing the fungal spores/mycelia fragments is then added to give an end concentration of the tested compound. The test plates are incubated in the dark at 24° C. and 96% relative humidity. The inhibition of fungal growth is determined photometrically after 2 to 7 days, depending on the pathosystem, and percent antifungal activity relative to the untreated check is calculated.
Conidia of the fungus from cryogenic storage are directly mixed into nutrient broth (PDB—potato dextrose broth). After placing a (DMSO) solution of test compound into a microtiter plate (96-well format), the nutrient broth containing the fungal spores is added. The test plates are incubated at 24° C. and the inhibition of growth is measured photometrically 3 to 4 days after application.
The following compounds at 20 ppm in the applied formulation give at least 80% disease control in this test when compared to untreated control under the same conditions, which show extensive disease development.

[2] = system: Puccinia recondita f. Sp. Triticil; experiment: Puccinia recondita f. sp. tritici / wheat / leaf disc curative (brown rust); type: in vivo, Puccinia recondita f. sp. tritici on wheat cv. Kanzler; details: foliar, 200 ppm in the applied formulation, applied 1 day after inoculation, assessed 6 to 8 days after application, vs untreated control leaf disks, read-out: disease control
Description: (§1) Leaf disks or leaf segments of various plant species are cut from plants grown in a greenhouse. The cut leaf disks or segments are placed in multiwell plates (24-well format) onto water agar. The leaf disks are sprayed with a test solution before (preventative) or after (curative) inoculation. Compounds to be tested are prepared as DMSO solutions (max. 10 mg/ml) which are diluted to the appropriate concentration with 0.025% Tween20 just before spraying. The inoculated leaf disks or segments are incubated under defined conditions (temperature, relative humidity, light, etc.) according to the respective test system. A single evaluation of disease level is carried out 3 to 14 days after inoculation, depending on the pathosystem. Percent disease control relative to the untreated check leaf disks or segments is then calculated.
Wheat leaf segments cv. Kanzler are placed on agar in multiwell plates (24-well format). The leaf segments are then inoculated with a spore suspension of the fungus. Plates were stored in darkness at 19° C. and 75% relative humidity. The formulated test compound diluted in water was applied 1 day after inoculation. The leaf segments were incubated at 19° C. and 75% relative humidity under a light regime of 12 hours light/12 hours darkness in a climate cabinet and the activity of a compound was assessed as percent disease control compared to untreated when an appropriate level of disease damage appears in untreated check leaf segments (6 to 8 days after application).
The following compounds at 200 ppm in the applied formulation give at least 80% disease control in this test when compared to untreated control leaf disks under the same conditions, which show extensive disease development.

[3] = system: Puccinia recondita f. Sp. Tritici; experiment: Puccinia recondita f. sp. tritici / wheat / leaf disc preventative (brown rust); type: in vivo, Puccinia recondita f. sp. tritici on wheat cv. Kanzler; details: foliar, 200 ppm in the applied formulation, inoculated 1 day after application, assessed 7 to 9 days after application, vs untreated control leaf disks, read-out: disease control
Description: as §1, with “calculated. Wheat leaf segments cv. Kanzler were placed on agar in multiwell plates (24-well format) and sprayed with the formulated test compound diluted in water. The leaf disks were inoculated with a spore suspension of the fungus 1 day after application. The inoculated leaf segments were incubated at 19′C and 75% relative humidity (rh) under a light regime of 12 hours light/12 hours darkness in a climate cabinet and the activity of a compound was assessed as percent disease control compared to untreated when an appropriate level of disease damage appears in untreated check leaf segments (7 to 9 days after application). The following compounds at 200 ppm in the applied formulation give at least 80% disease control in this test when compared to untreated control leaf disks under the same conditions, which show extensive disease development.” for “calculated.”

Structure (SMILES) | inhibition of growth at 20 ppm [1] [%] | pest or weed control at 200 ppm [2] [%] | pest or weed control at 200 ppm [3] [%]
O=C(NCc1ccc(-c2noc(C(F)(F)F)n2)cc1F)C1CCOC1 (stereo not shown) [Compound 1.70, N-[[2-fluoro-4-[5-(trifluoromethyl)-1,2,4-oxadiazol-3-yl]phenyl]methyl] tetrahydrofuran-3-carboxamide] | ≥ 80 | ≥ 80 | ≥ 80
O=C(NCc1ccc(-c2noc(C(F)(F)F)n2)cc1F)c1ccccc1Cl [Compound 1.48, 2-chloro-N-[[2-fluoro-4-[5-(trifluoromethyl)-1,2,4-oxadiazol-3-yl]phenyl]methyl]benzamide] | ≥ 80 |  | ≥ 80
O=C(NCc1ccc(-c2noc(C(F)(F)F)n2)cc1Cl)C1CC1 [Compound 1.81, N-[[2-chloro-4-[5-(trifluoromethyl)-1,2,4-oxadiazol-3-yl]phenyl]methyl] cyclopropanecarboxamide] | ≥ 80 |  | 
O=C(NCc1ccc(-c2noc(C(F)(F)F)n2)cn1)c1ccccc1Cl [Compound 1.44, 2-chloro-N-[[5-[5-(trifluoromethyl)-1,2,4-oxadiazol-3-yl]-2-pyridyl]methyl]benzamide] | ≥ 80 | ≥ 80 | ≥ 80
COc1cc(-c2noc(C(F)(F)F)n2)ccc1CNC(=O)C1CCCO1 (stereo not shown) [Compound 1.51, N-[[2-methoxy-4-[5-(trifluoromethyl)-1,2,4-oxadiazol-3-yl]phenyl]methyl]tetrahydrofuran-2-carboxamide] | ≥ 80 |  | 
COc1ccc(C2(C(=O)NCc3ccc(-c4noc(C(F)(F)F)n4)cc3)CC2)cc1 [Compound 1.38, 1-(4-methoxyphenyl)-N-[[4-[5-(trifluoromethyl)-1,2,4-oxadiazol-3-yl]phenyl]methyl] cyclopropanecarboxamide] | ≥ 80 |  | ≥ 80
O=C(NCc1ccc(-c2noc(C(F)(F)F)n2)c(F)c1F)C1CCOC1 (stereo not shown) [Compound 1.83, N-[[2,3-difluoro-4-[5-(trifluoromethyl)-1,2,4-oxadiazol-3-yl]phenyl]methyl] tetrahydrofuran-3-carboxamide] | ≥ 80 | ≥ 80 | ≥ 80
O=C(NCc1ccc(-c2noc(C(F)(F)F)n2)cc1F)C1CCC1 [Compound 1.63, N-[[2-fluoro-4-[5-(trifluoromethyl)-1,2,4-oxadiazol-3-yl]phenyl]methyl] cyclobutanecarboxamide] | ≥ 80 | ≥ 80 | ≥ 80
O=C(CC1CC1)NCc1ccc(-c2noc(C(F)(F)F)n2)cn1 [Compound 1.87, 2-cyclopropyl-N-[[5-[5-(trifluoromethyl)-1,2,4-oxadiazol-3-yl]-2-pyridyl]methyl]acetamide] | ≥ 80 | ≥ 80 | ≥ 80
O=C(NCc1ccc(-c2noc(C(F)(F)F)n2)c(F)c1)C1CCOC1 (stereo not shown) [Compound 1.68, N-[[3-fluoro-4-[5-(trifluoromethyl)-1,2,4-oxadiazol-3-yl]phenyl]methyl] tetrahydrofuran-3-carboxamide] | ≥ 80 | ≥ 80 | ≥ 80
O=C(NCc1ccc(-c2noc(C(F)(F)F)n2)cc1)c1ccccc1C(F)(F)F [Compound 1.43, 2-(trifluoromethyl)-N-[[4-[5-(trifluoromethyl)-1,2,4-oxadiazol-3-yl]phenyl]methyl]benzamide] |  |  | ≥ 80
CC1(C(=O)NCc2ccc(-c3noc(C(F)(F)F)n3)cc2F)COC1 [Compound 1.71, N-[[2-fluoro-4-[5-(trifluoromethyl)-1,2,4-oxadiazol-3-yl]phenyl]methyl]-3-methyl-oxetane-3-carboxamide] | ≥ 80 | ≥ 80 | ≥ 80
CC1(C(=O)NCc2ccc(-c3noc(C(F)(F)F)n3)cc2Cl)COC1 [Compound 1.84, N-[[2-chloro-4-[5-(trifluoromethyl)-1,2,4-oxadiazol-3-yl]phenyl]methyl]-3-methyl-oxetane-3-carboxamide] | ≥ 80 |  | ≥ 80
CC1(C(=O)NCc2ccc(-c3noc(C(F)(F)F)n3)cn2)CC1 [Compound 1.90, 1-methyl-N-[[5-[5-(trifluoromethyl)-1,2,4-oxadiazol-3-yl]-2-pyridyl]methyl] cyclopropanecarboxamide] | ≥ 80 | ≥ 80 | ≥ 80
O=C(NCc1ccc(-c2noc(C(F)(F)F)n2)cc1C(F)(F)F)C1CCCO1 (stereo not shown) [Compound 1.52, N-[[2-(trifluoromethyl)-4-[5-(trifluoromethyl)-1,2,4-oxadiazol-3-yl]phenyl]methyl]tetrahydrofuran-2-carboxamide] | ≥ 80 |  | 
O=C(NCc1ccc(-c2noc(C(F)(F)F)n2)cn1)C1CCC1 [Compound 1.88, N-[[5-[5-(trifluoromethyl)-1,2,4-oxadiazol-3-yl]-2-pyridyl]methyl] cyclobutanecarboxamide] | ≥ 80 | ≥ 80 | ≥ 80
Cc1cc(C(=O)NCc2ccc(-c3noc(C(F)(F)F)n3)cc2)c(C)o1 [Compound 1.41, 2,5-dimethyl-N-[[4-[5-(trifluoromethyl)-1,2,4-oxadiazol-3-yl]phenyl]methyl]furan-3-carboxamide] |  | ≥ 80 | ≥ 80
O=C(NCc1ccc(-c2noc(C(F)(F)F)n2)cc1F)C1CC1 [Compound 1.47, N-[[2-fluoro-4-[5-(trifluoromethyl)-1,2,4-oxadiazol-3-yl]phenyl]methyl] cyclopropanecarboxamide] | ≥ 80 | ≥ 80 | ≥ 80
CC1(C(=O)NCc2ccc(-c3noc(C(F)(F)F)n3)cc2Cl)CC1 [Compound 1.79, N-[[2-chloro-4-[5-(trifluoromethyl)-1,2,4-oxadiazol-3-yl]phenyl]methyl]-1-methyl-cyclopropanecarboxamide] | ≥ 80 |  | 
O=C(NCc1ccc(-c2noc(C(F)(F)F)n2)cc1)c1c(Cl)cccc1Cl [Compound 1.42, 2,6-dichloro-N-[[4-[5-(trifluoromethyl)-1,2,4-oxadiazol-3-yl]phenyl]methyl]benzamide] |  |  | ≥ 80
O=C(CC1CC1)NCc1ccc(-c2noc(C(F)(F)F)n2)cc1Cl [Compound 1.74, N-[[2-chloro-4-[5-(trifluoromethyl)-1,2,4-oxadiazol-3-yl]phenyl]methyl]-2-cyclopropyl-acetamide] | ≥ 80 |  | 
O=C(NCc1ccc(-c2noc(C(F)(F)F)n2)cc1Cl)C1CCOC1 (stereo not shown) [Compound 1.82, N-[[2-chloro-4-[5-(trifluoromethyl)-1,2,4-oxadiazol-3-yl]phenyl]methyl] tetrahydrofuran-3-carboxamide] | ≥ 80 |  | 
